US5684151A, “1-arylsulphonyl, arylcarbonyl and 1-arylphosphonyl-3-phenyl-1,4,5,6-tetrahydropyridazines” (priority 1995, dated 1997)
Read-outs that look alike come from different tables or passages of the source.

Experiments:
[1] = tested on: mouse (MC3T3-E1) and human (TE-85) osteoblast-line cells; type: cell-based
In short: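 MC3T3-E1 or TE-85 cells were plated overnight in DMEM/25 mM HEPES/10% FBS and then preincubated 24 h in 0.1% FBS. Compounds were added for 20 h, followed by a 4 h pulse of 0.4 μCi ^3H-thymidine. Incorporated radioactivity served as the proliferation index, expressed as % of control (control = 100%).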

[2] = biological target: T1, progestin receptor from rabbit uterus (Oryctolagus cuniculus, UniProt P06186); assay: Progestin receptor binding (3H-R5020 displacement); settings: rabbit uterine cytosol, 4° C., 18 h, read-out: IC50: Binding affinity for the progestin receptor from rabbit uterus
T1 construct: Cytosolic progestin receptor were obtained by mixing rabbit uterine tissue with a Tris buffer; from tissue; host or cells: rabbit uterus cytosol
T1 sequence (P06186 whole entry): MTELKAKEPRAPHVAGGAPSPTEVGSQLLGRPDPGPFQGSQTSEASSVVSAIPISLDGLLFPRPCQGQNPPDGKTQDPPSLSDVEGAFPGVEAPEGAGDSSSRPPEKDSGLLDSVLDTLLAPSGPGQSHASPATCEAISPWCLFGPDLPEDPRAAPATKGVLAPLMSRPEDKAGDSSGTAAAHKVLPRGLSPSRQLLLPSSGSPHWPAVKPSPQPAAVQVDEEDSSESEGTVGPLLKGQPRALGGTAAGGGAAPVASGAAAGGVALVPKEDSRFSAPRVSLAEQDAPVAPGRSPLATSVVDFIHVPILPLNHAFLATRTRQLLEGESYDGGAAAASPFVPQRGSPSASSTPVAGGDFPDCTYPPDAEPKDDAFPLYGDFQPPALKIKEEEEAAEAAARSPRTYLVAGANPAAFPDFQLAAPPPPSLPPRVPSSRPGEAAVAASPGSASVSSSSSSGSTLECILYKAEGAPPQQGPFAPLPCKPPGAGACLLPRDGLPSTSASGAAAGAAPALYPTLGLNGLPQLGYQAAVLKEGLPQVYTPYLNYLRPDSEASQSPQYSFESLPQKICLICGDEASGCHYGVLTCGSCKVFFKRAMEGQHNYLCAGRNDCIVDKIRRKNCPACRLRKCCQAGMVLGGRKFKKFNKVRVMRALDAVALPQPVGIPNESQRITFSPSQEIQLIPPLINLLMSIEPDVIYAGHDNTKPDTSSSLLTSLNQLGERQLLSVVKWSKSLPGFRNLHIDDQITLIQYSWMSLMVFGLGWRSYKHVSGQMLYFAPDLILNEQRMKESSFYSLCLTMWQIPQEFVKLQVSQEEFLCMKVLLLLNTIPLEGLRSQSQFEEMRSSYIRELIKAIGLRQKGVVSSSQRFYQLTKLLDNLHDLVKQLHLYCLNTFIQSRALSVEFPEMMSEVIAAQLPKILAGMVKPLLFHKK
Procedure: A progestin initiates a biological response by first binding to a progestin receptor. Affinity for progestin receptors was determined by measuring the ability of compounds to displace a progestin radioligand from those receptors in vitro. Cytosolic progestin receptor were obtained by mixing rabbit uterine tissue with a Tris buffer [0.1M Tris-Hcl, 1 mM Na2 EDTA, 1 mM dithiothreotol, 1 mM sodium molybdate, 1% glycerol, pH 7.4]. The tissue/buffer mixture was homogenized under ice-cold conditions. The homogenate was then centrifuged and the supernatant (cytosol preparation) was decanted and stored at -70° C. and thawed prior to use. The competitive binding assay was performed by mixing ^3 H-R5020, a progestin radioligand, with cytosol preparation and various concentrations of test compounds (prepared in DMSO with a final 5% DMSO concentration). This mixture was then incubated at 4° C. for about 18 hours. Non-specific binding was determined using an unlabelled ligand in excess. After the incubation period, the radioligand bound to receptor was separated from free radioligand using dextran-coated charcoal. The amount of bound radioligand was then determined by liquid scintillation counting. The data were expressed as the concentration of test compound that displaced 50% of the radioligand from the receptor (IC50)
Aspects of the application used in this procedure are described in the following: J. L. McGuire et al., Biochemistry 13, 319, 1974.

## O=S(=O)(c1ccc(Br)cc1)N1CCCC(c2ccc(Cl)cc2)=N1 [Compound 13]
[1]; 10^-6
  Osteoblast Cell Proliferation, 3H-thymidine incorporation vs control (100%): 88%
[1]; 10^-7
  Osteoblast Cell Proliferation, 3H-thymidine incorporation vs control (100%): 109%
[1]; 10^-8
  Osteoblast Cell Proliferation, 3H-thymidine incorporation vs control (100%): 114%
[1]; 10^-9
  Osteoblast Cell Proliferation, 3H-thymidine incorporation vs control (100%): 109%
[1]; 10^-10
  Osteoblast Cell Proliferation, 3H-thymidine incorporation vs control (100%): 152%
[2]
  IC50: 9 nM

## O=[N+]([O-])c1cccc(S(=O)(=O)N2CCCC(c3ccc(Cl)cc3)=N2)c1 [Compound 14]
[1]; 10^-6
  Osteoblast Cell Proliferation, 3H-thymidine incorporation vs control (100%): 96%
[1]; 10^-7
  Osteoblast Cell Proliferation, 3H-thymidine incorporation vs control (100%): 109%
[1]; 10^-8
  Osteoblast Cell Proliferation, 3H-thymidine incorporation vs control (100%): 118%
[1]; 10^-9
  Osteoblast Cell Proliferation, 3H-thymidine incorporation vs control (100%): 136%
[1]; 10^-10
  Osteoblast Cell Proliferation, 3H-thymidine incorporation vs control (100%): 139%
[2]
  IC50: 7 nM

## O=S(=O)(c1ccc2ccccc2c1)N1CCCC(c2ccc(F)cc2)=N1 [Compound 25]
[1]; 10^-6
  Osteoblast Cell Proliferation, 3H-thymidine incorporation vs control (100%): 87%
[1]; 10^-7
  Osteoblast Cell Proliferation, 3H-thymidine incorporation vs control (100%): 106%
[1]; 10^-8
  Osteoblast Cell Proliferation, 3H-thymidine incorporation vs control (100%): 101%
[1]; 10^-9
  Osteoblast Cell Proliferation, 3H-thymidine incorporation vs control (100%): 99%
[1]; 10^-10
  Osteoblast Cell Proliferation, 3H-thymidine incorporation vs control (100%): 90%
[2]
  IC50: 49 nM

## O=S(=O)(c1ccc(F)cc1F)N1CCCC(c2ccc(Cl)cc2)=N1 [Compound 32]
[1]; 10^-6
  Osteoblast Cell Proliferation, 3H-thymidine incorporation vs control (100%): 89%
[1]; 10^-7
  Osteoblast Cell Proliferation, 3H-thymidine incorporation vs control (100%): 103%
[1]; 10^-8
  Osteoblast Cell Proliferation, 3H-thymidine incorporation vs control (100%): 105%
[1]; 10^-9
  Osteoblast Cell Proliferation, 3H-thymidine incorporation vs control (100%): 111%
[1]; 10^-10
  Osteoblast Cell Proliferation, 3H-thymidine incorporation vs control (100%): 118%
[2]
  IC50: 45 nM

## O=S(=O)(c1cc(C(F)(F)F)cc(C(F)(F)F)c1)N1CCCC(c2ccc(Cl)cc2)=N1 [Compound 33]
[1]; 10^-6
  Osteoblast Cell Proliferation, 3H-thymidine incorporation vs control (100%): 96%
[1]; 10^-7
  Osteoblast Cell Proliferation, 3H-thymidine incorporation vs control (100%): 107%
[1]; 10^-8
  Osteoblast Cell Proliferation, 3H-thymidine incorporation vs control (100%): 117%
[1]; 10^-9
  Osteoblast Cell Proliferation, 3H-thymidine incorporation vs control (100%): 127%
[1]; 10^-10
  Osteoblast Cell Proliferation, 3H-thymidine incorporation vs control (100%): 152%
[2]
  IC50: 9 nM

## O=[N+]([O-])c1ccc(S(=O)(=O)N2CCCC(c3ccc(Cl)c(Cl)c3)=N2)cc1 [Compound 38]
[1]; 10^-6
  Osteoblast Cell Proliferation, 3H-thymidine incorporation vs control (100%): 76%
[1]; 10^-7
  Osteoblast Cell Proliferation, 3H-thymidine incorporation vs control (100%): 73%
[1]; 10^-8
  Osteoblast Cell Proliferation, 3H-thymidine incorporation vs control (100%): 54%
[1]; 10^-9
  Osteoblast Cell Proliferation, 3H-thymidine incorporation vs control (100%): 49%
[1]; 10^-10
  Osteoblast Cell Proliferation, 3H-thymidine incorporation vs control (100%): 37%
[2]
  IC50: 5.29 nM

## O=S(=O)(c1ccccc1)N1CCCC(c2ccc(Cl)c(Cl)c2)=N1 [Compound 43]
[1]; 10^-6
  Osteoblast Cell Proliferation, 3H-thymidine incorporation vs control (100%): 92%
[1]; 10^-7
  Osteoblast Cell Proliferation, 3H-thymidine incorporation vs control (100%): 92%
[1]; 10^-8
  Osteoblast Cell Proliferation, 3H-thymidine incorporation vs control (100%): 99%
[1]; 10^-9
  Osteoblast Cell Proliferation, 3H-thymidine incorporation vs control (100%): 98%
[1]; 10^-10
  Osteoblast Cell Proliferation, 3H-thymidine incorporation vs control (100%): 85%
[2]
  IC50: 3.3 nM

## COC(=O)c1ccccc1S(=O)(=O)N1CCCC(c2ccc(Cl)c(Cl)c2)=N1 [Compound 47]
[1]; 10^-6
  Osteoblast Cell Proliferation, 3H-thymidine incorporation vs control (100%): 109%
[1]; 10^-7
  Osteoblast Cell Proliferation, 3H-thymidine incorporation vs control (100%): 112%
[1]; 10^-8
  Osteoblast Cell Proliferation, 3H-thymidine incorporation vs control (100%): 113%
[1]; 10^-9
  Osteoblast Cell Proliferation, 3H-thymidine incorporation vs control (100%): 115%
[1]; 10^-10
  Osteoblast Cell Proliferation, 3H-thymidine incorporation vs control (100%): 123%
[2]
  IC50: 20.1 nM

## O=S(=O)(c1ccc2ccccc2c1)N1CCCC(c2ccccc2)=N1 [Compound 51]
[1]; 10^-6
  Osteoblast Cell Proliferation, 3H-thymidine incorporation vs control (100%): 119%
[1]; 10^-7
  Osteoblast Cell Proliferation, 3H-thymidine incorporation vs control (100%): 120%
[1]; 10^-8
  Osteoblast Cell Proliferation, 3H-thymidine incorporation vs control (100%): 144%
[1]; 10^-9
  Osteoblast Cell Proliferation, 3H-thymidine incorporation vs control (100%): 126%
[1]; 10^-10
  Osteoblast Cell Proliferation, 3H-thymidine incorporation vs control (100%): 158%
[2]
  IC50: 203 nM

## COc1ccc(C2=NN(S(=O)(=O)c3ccc(Cl)cc3)CCC2)cc1 [Compound 63]
[1]; 10^-6
  Osteoblast Cell Proliferation, 3H-thymidine incorporation vs control (100%): 101%
[1]; 10^-7
  Osteoblast Cell Proliferation, 3H-thymidine incorporation vs control (100%): 103%
[1]; 10^-8
  Osteoblast Cell Proliferation, 3H-thymidine incorporation vs control (100%): 99%
[1]; 10^-9
  Osteoblast Cell Proliferation, 3H-thymidine incorporation vs control (100%): 77%
[1]; 10^-10
  Osteoblast Cell Proliferation, 3H-thymidine incorporation vs control (100%): 97%
[2]
  IC50: 118 nM
